Laboratory results: ChEMBL document CHEMBL1201862, “PubChem BioAssay data set” (2004)
Values belong to the compound of their own block, whether it stands above or below them. The source made the active and inactive calls.

What was measured:
[1] = biological target: Cytochrome P450 2D6 (Homo sapiens, UniProt P10635);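 note: CYP2D6 member of a cytochrome P450 panel assay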
[2] = biological target: T1, Cytochrome P450 2C9 (Homo sapiens, UniProt P11712)
[3] = Luminescence-based cell-based high throughput dose response assay to identify activators of the DAF-12 from the parasite S. stercoralis (ssDAF-12).; type: functional
[4] = biological target: T2, E3 ubiquitin-protein ligase XIAP (Homo sapiens, UniProt P98170); test: XIAP antagonists, biochemical, IAP family, fluorescence polarization (AID 1018); type: functional
[5] = biological target: T2, E3 ubiquitin-protein ligase XIAP; test: Counter Screen using XIAP-Bir3 for Chemical Antagonists of Bir1/2 domains of IAP-family anti-apoptotic proteins. [Related pubchem assays (depositor defined):AID1018, AID1449, AID1514, AID1638, AID1749, AID1750, AID488957, AID488963]
[6] = HEK293T cytotoxicity, dose response, cytotoxicity control for miR-122 modulator project, cell-based, activator set, cherry-pick (AID 720690); type: functional;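 note: HEK293T human cells scored for general mammalian cytotoxicity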
[7] = miR-122 activators in hepatoma reporter cells, dose response, cell-based, Huh7 psiCHECK-miR122, Renilla luciferase, cherry-picked (AID 651956); type: functional;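 note: huh7 hepatoma cells stably carrying a psiCHECK-2 miR-122 sensor plasmid; renilla luciferase signal reporting endogenous miR-122 activity after 48 h compound exposure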
[8] = biological target: T3, Ubiquitin-conjugating enzyme E2 N (Homo sapiens, UniProt P61088); type: functional
T3 sequence (P61088 whole entry): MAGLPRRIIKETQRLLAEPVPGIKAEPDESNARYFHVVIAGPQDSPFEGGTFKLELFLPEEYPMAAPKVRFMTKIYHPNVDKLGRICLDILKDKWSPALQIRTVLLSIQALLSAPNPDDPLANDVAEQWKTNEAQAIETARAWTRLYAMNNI

[9] = inhibitors of intracellular T. cruzi replication, confirmation, NIH3T3 host cells, beta-gal luminescence (AID 2044); type: functional, cell-based;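 note: intracellular parasites grown in NIH/3T3 mouse fibroblasts as host cells; luminescent beta-galactosidase reporter signal from transgenic T. cruzi replicating inside host cells; inhibitors lower the luminescence signal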
[10] = biological target: T3, Ubiquitin-conjugating enzyme E2 N; type: functional; remark: listed apart in the source
[11] = cytotoxicity toward NIH3T3 fibroblasts, dose response, counter-screen, cell-based, ATP luminescence, mouse fibroblasts (AID 2010); type: functional;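 note: cells exposed to compound for about 90 hours before reading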
[12] = biological target: T4, Bcl-2-related protein A1 (Mus musculus, UniProt Q07440); type: functional;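 note: confirmatory dose–response counterscreen on Bfl-1, used to check hits from a UBC13 polyubiquitin inhibitor campaign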
T4 sequence (Q07440 whole entry): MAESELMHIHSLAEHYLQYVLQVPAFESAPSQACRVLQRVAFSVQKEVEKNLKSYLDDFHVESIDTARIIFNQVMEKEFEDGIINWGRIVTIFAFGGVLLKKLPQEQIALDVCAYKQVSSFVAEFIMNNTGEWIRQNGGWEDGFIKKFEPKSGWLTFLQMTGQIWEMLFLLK

[13] = biological target: CAAX prenyl protease 1 (Saccharomyces cerevisiae S288c, UniProt P47154); test: Ste24 protease inhibitors, dose response, biochemical, S. cerevisiae, plate reader, cherry-pick (AID 488815)
[14] = biological target: T1, Cytochrome P450 2C9; remark: listed apart in the source
[15] = biological target: T5, Alkaline phosphatase, tissue-nonspecific isozyme (Homo sapiens, UniProt P05186); test: human TNAP enzyme inhibitors, SAR follow-up, biochemical, luminescent, dose response (AID 1056)
T5 sequence (P05186 whole entry): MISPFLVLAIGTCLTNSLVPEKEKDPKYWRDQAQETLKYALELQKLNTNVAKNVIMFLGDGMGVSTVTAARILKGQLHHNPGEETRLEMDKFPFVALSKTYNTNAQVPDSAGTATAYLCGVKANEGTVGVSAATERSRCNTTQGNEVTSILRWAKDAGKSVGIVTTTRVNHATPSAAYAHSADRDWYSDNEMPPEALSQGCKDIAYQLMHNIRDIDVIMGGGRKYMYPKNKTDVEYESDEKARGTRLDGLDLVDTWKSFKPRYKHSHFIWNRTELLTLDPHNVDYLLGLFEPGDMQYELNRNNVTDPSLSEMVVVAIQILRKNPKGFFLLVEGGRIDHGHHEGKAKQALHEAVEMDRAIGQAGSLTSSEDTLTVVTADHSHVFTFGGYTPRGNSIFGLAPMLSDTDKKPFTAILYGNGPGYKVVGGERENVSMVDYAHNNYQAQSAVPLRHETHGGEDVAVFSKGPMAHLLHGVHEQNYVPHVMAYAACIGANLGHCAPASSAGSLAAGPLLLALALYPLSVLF

[16] = biological target: Glyceraldehyde-3-phosphate dehydrogenase (Homo sapiens, UniProt P04406)
[17] = biological target: Peroxisome proliferator-activated receptor gamma/Nuclear receptor coactivator 1 (Homo sapiens, UniProt P37231); test: TR-FRET dose response biochemical High Throughput Screening assay for agonists of the steroid receptor coactivator 1 (SRC-1) recruitment by the peroxisome proliferator-activated receptor gamma (PPAR gamma): non-selective agonists. [Related pubchem assays (depositor defined):AID1300, AID1808, AID504735, AID631]; type: protein assay
[18] = biological target: Peroxisome proliferator-activated receptor gamma/Nuclear receptor coactivator 2 (Homo sapiens, UniProt P37231); test: (§1) TR-FRET dose response biochemical High Throughput Screening assay for agonists of the steroid receptor coactivator 2 (SRC-2) recruitment by the peroxisome proliferator-activated receptor gamma (PPAR gamma): non-selective agonists. [Related pubchem assays: 1297, 1032 ]; type: functional
[19] = biological target: Peroxisome proliferator-activated receptor gamma/Nuclear receptor coactivator 3 (Homo sapiens, UniProt P37231); test: as §1, with “3 (SRC-3)” for “2 (SRC-2)”, “1301 (Confirmation screen.), 1048 (Primary screen.)]” for “1297, 1032 ]”; type: functional
Peroxisome proliferator-activated receptor gamma/Nuclear receptor coactivator 3, sequence (P37231 whole entry): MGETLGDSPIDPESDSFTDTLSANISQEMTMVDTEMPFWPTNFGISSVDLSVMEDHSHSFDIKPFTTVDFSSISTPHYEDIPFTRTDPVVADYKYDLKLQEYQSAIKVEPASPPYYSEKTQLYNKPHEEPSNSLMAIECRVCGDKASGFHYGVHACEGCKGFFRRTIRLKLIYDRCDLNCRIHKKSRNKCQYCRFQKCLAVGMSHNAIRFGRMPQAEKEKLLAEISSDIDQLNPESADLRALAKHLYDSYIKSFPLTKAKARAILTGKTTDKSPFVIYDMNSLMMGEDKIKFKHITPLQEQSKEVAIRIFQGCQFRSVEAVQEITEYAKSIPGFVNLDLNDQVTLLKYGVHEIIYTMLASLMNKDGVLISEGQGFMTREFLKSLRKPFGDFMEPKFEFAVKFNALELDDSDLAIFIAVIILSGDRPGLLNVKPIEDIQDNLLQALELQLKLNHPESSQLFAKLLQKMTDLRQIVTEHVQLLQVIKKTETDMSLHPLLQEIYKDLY
Peroxisome proliferator-activated receptor gamma/Nuclear receptor coactivator 3, sequence (Q9Y6Q9 whole entry, further chain): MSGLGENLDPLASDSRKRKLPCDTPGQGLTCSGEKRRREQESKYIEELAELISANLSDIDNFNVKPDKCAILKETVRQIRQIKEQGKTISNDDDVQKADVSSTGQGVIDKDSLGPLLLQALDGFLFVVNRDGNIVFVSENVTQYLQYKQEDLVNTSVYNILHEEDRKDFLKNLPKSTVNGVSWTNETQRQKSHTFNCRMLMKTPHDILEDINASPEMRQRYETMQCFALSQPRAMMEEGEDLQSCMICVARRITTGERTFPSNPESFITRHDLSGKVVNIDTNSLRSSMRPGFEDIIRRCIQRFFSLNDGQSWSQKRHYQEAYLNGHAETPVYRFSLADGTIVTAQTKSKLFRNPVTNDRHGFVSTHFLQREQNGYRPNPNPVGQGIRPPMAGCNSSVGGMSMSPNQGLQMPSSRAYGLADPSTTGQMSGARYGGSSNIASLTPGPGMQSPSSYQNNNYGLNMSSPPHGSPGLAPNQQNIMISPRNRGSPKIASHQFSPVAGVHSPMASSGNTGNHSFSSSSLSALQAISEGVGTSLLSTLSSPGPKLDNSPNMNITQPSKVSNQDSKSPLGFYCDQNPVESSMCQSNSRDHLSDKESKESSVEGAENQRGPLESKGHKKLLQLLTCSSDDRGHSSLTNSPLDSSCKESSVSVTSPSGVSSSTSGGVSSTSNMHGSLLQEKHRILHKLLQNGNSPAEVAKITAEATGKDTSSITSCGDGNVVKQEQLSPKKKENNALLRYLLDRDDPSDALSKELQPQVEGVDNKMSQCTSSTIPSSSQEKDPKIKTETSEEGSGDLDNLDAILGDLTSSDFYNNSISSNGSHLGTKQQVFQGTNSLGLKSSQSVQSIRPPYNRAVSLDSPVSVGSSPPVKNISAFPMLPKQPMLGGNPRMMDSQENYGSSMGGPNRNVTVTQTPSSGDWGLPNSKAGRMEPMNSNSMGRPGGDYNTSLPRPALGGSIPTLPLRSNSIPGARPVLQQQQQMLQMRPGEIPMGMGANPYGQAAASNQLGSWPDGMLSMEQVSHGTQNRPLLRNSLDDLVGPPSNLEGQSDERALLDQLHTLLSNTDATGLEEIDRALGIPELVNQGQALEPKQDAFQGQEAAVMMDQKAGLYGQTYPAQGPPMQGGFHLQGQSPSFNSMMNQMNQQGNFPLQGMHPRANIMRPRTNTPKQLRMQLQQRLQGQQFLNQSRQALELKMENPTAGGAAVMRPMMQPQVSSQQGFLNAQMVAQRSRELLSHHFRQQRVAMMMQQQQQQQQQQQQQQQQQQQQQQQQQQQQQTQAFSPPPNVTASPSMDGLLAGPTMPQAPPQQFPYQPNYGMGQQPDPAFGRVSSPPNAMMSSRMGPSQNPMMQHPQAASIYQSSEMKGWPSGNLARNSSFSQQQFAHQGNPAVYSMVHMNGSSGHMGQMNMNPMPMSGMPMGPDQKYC

T2 sequence (P98170 whole entry): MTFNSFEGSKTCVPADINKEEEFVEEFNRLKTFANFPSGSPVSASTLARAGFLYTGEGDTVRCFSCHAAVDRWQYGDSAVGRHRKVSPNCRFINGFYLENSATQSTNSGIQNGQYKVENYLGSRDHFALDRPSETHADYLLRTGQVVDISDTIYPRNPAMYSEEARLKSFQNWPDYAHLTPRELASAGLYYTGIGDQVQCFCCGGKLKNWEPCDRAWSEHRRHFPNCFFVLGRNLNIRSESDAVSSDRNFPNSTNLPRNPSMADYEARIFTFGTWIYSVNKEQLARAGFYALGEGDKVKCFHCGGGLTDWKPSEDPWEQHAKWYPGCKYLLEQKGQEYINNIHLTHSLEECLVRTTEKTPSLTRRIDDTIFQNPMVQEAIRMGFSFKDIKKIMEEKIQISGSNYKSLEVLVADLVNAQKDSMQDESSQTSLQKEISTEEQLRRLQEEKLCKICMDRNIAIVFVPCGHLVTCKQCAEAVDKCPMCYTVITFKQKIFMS
T1 sequence (P11712 whole entry): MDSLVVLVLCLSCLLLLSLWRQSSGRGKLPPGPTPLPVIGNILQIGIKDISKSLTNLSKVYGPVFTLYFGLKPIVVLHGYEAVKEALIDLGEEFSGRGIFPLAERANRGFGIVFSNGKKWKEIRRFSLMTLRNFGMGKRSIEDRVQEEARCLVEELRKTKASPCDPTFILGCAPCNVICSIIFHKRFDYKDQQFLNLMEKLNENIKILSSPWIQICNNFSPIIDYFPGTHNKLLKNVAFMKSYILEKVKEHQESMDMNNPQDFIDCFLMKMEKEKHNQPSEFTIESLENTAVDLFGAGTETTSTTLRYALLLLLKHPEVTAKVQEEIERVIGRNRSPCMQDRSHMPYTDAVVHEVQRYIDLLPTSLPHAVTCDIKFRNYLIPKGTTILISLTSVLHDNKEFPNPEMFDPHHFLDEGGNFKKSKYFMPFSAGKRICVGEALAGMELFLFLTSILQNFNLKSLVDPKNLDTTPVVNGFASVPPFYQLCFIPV
Glyceraldehyde-3-phosphate dehydrogenase, sequence (P04406 whole entry): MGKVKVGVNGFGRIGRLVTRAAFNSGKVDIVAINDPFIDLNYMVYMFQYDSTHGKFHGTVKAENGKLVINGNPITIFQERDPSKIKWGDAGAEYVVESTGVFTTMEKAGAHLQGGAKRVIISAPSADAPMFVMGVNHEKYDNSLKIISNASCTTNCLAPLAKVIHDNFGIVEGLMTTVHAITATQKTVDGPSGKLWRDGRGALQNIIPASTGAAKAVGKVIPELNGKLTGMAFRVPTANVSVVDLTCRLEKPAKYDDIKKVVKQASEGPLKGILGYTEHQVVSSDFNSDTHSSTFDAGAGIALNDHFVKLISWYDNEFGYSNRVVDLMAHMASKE
CAAX prenyl protease 1, sequence (P47154 whole entry): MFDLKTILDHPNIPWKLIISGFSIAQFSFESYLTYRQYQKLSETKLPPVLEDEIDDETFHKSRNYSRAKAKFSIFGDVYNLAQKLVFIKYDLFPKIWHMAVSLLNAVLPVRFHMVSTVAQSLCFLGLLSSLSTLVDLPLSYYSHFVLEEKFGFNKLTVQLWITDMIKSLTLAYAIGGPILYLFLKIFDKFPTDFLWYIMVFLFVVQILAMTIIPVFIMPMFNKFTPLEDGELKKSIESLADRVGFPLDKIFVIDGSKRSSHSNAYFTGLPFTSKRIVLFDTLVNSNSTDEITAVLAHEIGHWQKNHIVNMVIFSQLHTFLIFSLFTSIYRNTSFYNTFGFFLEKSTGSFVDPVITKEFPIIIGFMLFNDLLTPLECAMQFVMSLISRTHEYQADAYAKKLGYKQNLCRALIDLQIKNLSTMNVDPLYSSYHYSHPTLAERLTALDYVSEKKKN
Cytochrome P450 2D6, sequence (P10635 whole entry): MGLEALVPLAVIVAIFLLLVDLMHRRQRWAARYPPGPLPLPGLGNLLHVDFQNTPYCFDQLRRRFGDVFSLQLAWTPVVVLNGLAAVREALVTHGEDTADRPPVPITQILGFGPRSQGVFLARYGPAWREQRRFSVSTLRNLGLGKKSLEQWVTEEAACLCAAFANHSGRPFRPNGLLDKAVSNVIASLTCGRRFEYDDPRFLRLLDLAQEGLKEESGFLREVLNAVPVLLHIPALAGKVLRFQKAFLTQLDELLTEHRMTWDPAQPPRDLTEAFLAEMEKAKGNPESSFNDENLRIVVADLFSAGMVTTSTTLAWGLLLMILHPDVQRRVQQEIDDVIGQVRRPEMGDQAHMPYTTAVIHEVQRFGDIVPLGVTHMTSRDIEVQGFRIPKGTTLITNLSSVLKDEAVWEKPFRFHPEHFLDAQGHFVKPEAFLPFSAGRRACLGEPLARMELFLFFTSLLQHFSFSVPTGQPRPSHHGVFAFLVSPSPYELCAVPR

AC50 [13]: 14.7 µM (active)
Structure (SMILES): Cc1cc(C)cc(N2CC(=O)C(c3nc(O)c4ccccc4n3)=C2N)c1

AC50 [14]: inconclusive
Structure (SMILES): COc1ccccc1C(=O)Nc1cc2c(ccc3ccccc32)oc1=O

EC50 [17]: 10.3 µM (inactive)
EC50 [18]: 11.6 µM (not active)
EC50 [19]: 63.6 µM (not active)
Structure (SMILES): O=c1c2ccccc2c(-c2nnc(S)o2)nn1Cc1ccccc1

More lines, now with the values behind:

Structure (SMILES): CC(C)c1ccc(C(O)(C(=O)O)c2ccc(C(C)C)cc2)cc1
AC50 [1]: inconclusive
AC50 [2]: 3.98 µM (inconclusive)

Structure (SMILES): Cc1c(C(=O)N2CCc3ccccc32)oc2ccccc12
IC50 [3]: > 67.6 µM (inactive)
IC50 [4]: > 100 µM (not active)
IC50 [5]: > 100 µM (inactive)

Structure (SMILES): CCN(CC)CCNC(=O)c1ccc(NC(=O)c2cn(-c3ccc(F)cc3)nc2-c2cccc(OC)c2)cc1
AC50 [6]: 15.8 µM (active)
AC50 [7]: 11.1 µM (active)
IC50 [8]: 14.6 µM (active)
EC50 [9]: 3.25 µM (active)
IC50 [10]: 8.8 µM (active)
EC50 [11]: > 60 µM (not active)
IC50 [12]: > 20 µM (inactive)

Structure (SMILES): O=C1C2CCCCC2C(=O)N1c1ncn[nH]1 (centres undefined)
IC50 [15]: > 100 µM (inactive)
IC50 [16]: > 100 µM (not active)
